Source: patent publication US8680113B2, “BMI-1 protein expression modulators” (PTC Therapeutics, Inc., priority 2008, dated 2014)

Assays:
[1] = system: Bmi-1; assay: Sandwich ELISA Assay (Bmi-1 ELISA in HT-1080 cells); type: cell-based, human
Outline: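 Lysate Bmi-1 was quantified against a recombinant GST-Bmi-1 standard (0-8000 pg/mL) by sandwich ELISA read at OD450 with OD570 reference. The ELISA used mouse monoclonal capture, rabbit anti-Bmi-1, HRP anti-rabbit IgG and TMB. Before lysis, HT-1080 cells seeded at 8000/well were exposed to compounds for 40-48 h at 37°C with 0.5% final DMSO.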

[2] = system: Bmi-1; assay: Cell Model Assay: Bmi-1 expression in HT1080; type: cell-based, human; details: HT1080 (fibrosarcoma)
Description: (§1) Using assay conditions known to those skilled in the art, the ability of the compounds described herein to reduce Bmi-1 expression in HT1080 (fibrosarcoma), U87-MG (glioblastoma), T98G (glioblastoma), K562 (chronic myelogenous leukemia) and KG1 (acute myelogenous leukemia) cell lines was tested (at test compound concentrations calculated from the ELISA assay data shown in Example 1) compared to puromycin as a control to provide the EC50 values shown in Table 2. The term “ND” means that data was not determined.

[3] = system: Bmi-1; assay: Cell Model Assay: Bmi-1 expression in U87-MG; type: cell-based; details: U87-MG (glioblastoma)
Description: as §1

[4] = system: Bmi-1; assay: Cell Model Assay: Bmi-1 expression in T98G; type: cell-based; details: T98G (glioblastoma)
Description: as §1

[5] = system: MCL-Jeko; assay: Mantle Cell Lymphoma Assay: cytotoxicity, Jeko; type: cell-based; details: 72 hrs in culture
Source text: (§2) MCL cell lines Jeko, Mino, and Rec-1 were provided by American Type Culture Collection: The Bioresource Center (Manassas, Va.). […] Carlsbad, Calif.) in T-75 culture flasks. Cell concentration was maintained between 2 to 3×10^5 cells/mL. Early passage cells (passages 2-4) were used for all experiments. Ficoll-Histopaque density sedimentation (Sigma Aldrich) was used for separation of debris and purification of cell lines prior to experiments. […] The cytotoxic effect of test compounds on the MCL-cell lines was assessed by measuring cell concentration and cell viability using a Beckman Coulter Vi-Cell Counter. Controls and treated cells were harvested and counted at day 3.

[6] = system: MCL-Mino; assay: Mantle Cell Lymphoma Assay: cytotoxicity, Mino; type: cell-based; details: 72 hrs in culture
Source text: as §2

[7] = system: MCL-Rec1; assay: Mantle Cell Lymphoma Assay: cytotoxicity, Rec-1; type: cell-based; details: 72 hrs in culture
Source text: as §2

[8] = system: MM cell line; assay: Multiple Myeloma Assay; type: cell-based; details: 72 hrs in culture
[9] = system: Jeko, Mino and Rec-1 cells; assay: cells; type: cell-based; details: 72 h, read-out: decrease in cell viability

Q: What does the source list for `Cc1nc2ncccn2c1-c1csc(Nc2ccc(I)cc2)n1` [Cpd 39, N-(4-iodophenyl)-4-(2-methylimidazo[1,2-a]pyrimidin-3-yl)-1,3-thiazol-2-amine]?
A: IC50 [1]: < 500 nM; EC50 [2]: 5 nM; EC50 [3]: < 4 nM; EC50 [4]: < 4 nM

Q: Which IC50 [1] does the source give for `Cc1nc2ncccn2c1-c1csc(Nc2ccc(Cl)cc2)n1` [Cpd 49, N-(4-chlorophenyl)-4-(2-methylimidazo[1,2-a]pyrimidin-3-yl)-1,3-thiazol-2-amine] here?
A: < 500 nM

Q: What about the “Cell Concentration, MCL-Jeko” value ([5]; dose 0.004 μM) of the same compound?
A: 1.83 ± 0.01 ×10^6

Q: What about the viability at 0.004 µM ([5]; dose 0.004 μM, read-out: Cell Viability, MCL-Jeko) of the same compound?
A: 74.33 ± 0.53%

Q: And the “Cell Concentration, MCL-Jeko” value ([5]; dose 0.037 μM)?
A: 1.94 ± 0.06 ×10^6

Q: What about the viability at 0.037 µM ([5]; dose 0.037 μM, read-out: Cell Viability, MCL-Jeko) of the same compound?
A: 74.7 ± 1.08%

Q: What about the “Cell Concentration, MCL-Jeko” value ([5]; dose 0.11 μM) of the same compound?
A: 2.06 ± 0.04 ×10^6

Q: What about the viability at 0.11 µM ([5]; dose 0.11 μM, read-out: Cell Viability, MCL-Jeko) of the same compound?
A: 78.73 ± 0.33%

Q: What about the “Cell Concentration, MCL-Jeko” value ([5]; dose 0.33 μM) of the same compound?
A: 1.82 ± 0.06 ×10^6

Q: And the viability at 0.33 µM ([5]; dose 0.33 μM, read-out: Cell Viability, MCL-Jeko)?
A: 73.2 ± 0.58%

Q: What about the “Cell Concentration, MCL-Jeko” value ([5]; dose 1 μM) of the same compound?
A: 0.66 ± 0.05 ×10^6

Q: What about the viability at 1 µM ([5]; dose 1 μM, read-out: Cell Viability, MCL-Jeko) of the same compound?
A: 39.6 ± 2.28%

Q: And the “Cell Concentration, MCL-Jeko” value ([5]; dose 3 μM)?
A: 0.06 ± 0.01 ×10^6

Q: What about the viability at 3 µM ([5]; dose 3 μM, read-out: Cell Viability, MCL-Jeko) of the same compound?
A: 5.4 ± 0.61%

Q: What about the viability at 0.004 µM ([6]; Homo sapiens, MINO, dose 0.004 μM, read-out: Cell Viability, MCL-Mino) of the same compound?
A: 94.7 ± 0.44%

Q: What about the viability at 0.037 µM ([6]; Homo sapiens, MINO, dose 0.037 μM, read-out: Cell Viability, MCL-Mino) of the same compound?
A: 91.2 ± 1%

Q: What about the viability at 0.11 µM ([6]; Homo sapiens, MINO, dose 0.11 μM, read-out: Cell Viability, MCL-Mino) of the same compound?
A: 75.6 ± 1.49%

Q: And the viability at 0.33 µM ([6]; Homo sapiens, MINO, dose 0.33 μM, read-out: Cell Viability, MCL-Mino)?
A: 34.4 ± 2.46%

Q: And the viability at 1 µM ([6]; Homo sapiens, MINO, dose 1 μM, read-out: Cell Viability, MCL-Mino)?
A: 15.3 ± 1.13%

Q: And the viability at 3 µM ([6]; Homo sapiens, MINO, dose 3 μM, read-out: Cell Viability, MCL-Mino)?
A: 12.7 ± 1.47%

Q: What about the “Cell Concentration, MCL-Mino” value ([6]; dose 0.004 μM) of the same compound?
A: 1.87 ± 0.04 ×10^6

Q: And the “Cell Concentration, MCL-Mino” value ([6]; dose 0.037 μM)?
A: 1.72 ± 0.09 ×10^6

Q: What about the “Cell Concentration, MCL-Mino” value ([6]; dose 0.11 μM) of the same compound?
A: 0.97 ± 0.06 ×10^6

Q: What about the “Cell Concentration, MCL-Mino” value ([6]; dose 0.33 μM) of the same compound?
A: 0.15 ± 0.06 ×10^6

Q: What about the “Cell Concentration, MCL-Mino” value ([6]; dose 1 μM) of the same compound?
A: 0.07 ± 0.01 ×10^6

Q: And the “Cell Concentration, MCL-Mino” value ([6]; dose 3 μM)?
A: 0.06 ± 0.01 ×10^6

Q: What about the viability at 0.004 µM ([7]; Homo sapiens, Rec1, dose 0.004 μM, read-out: Cell Viability, MCL-Rec1) of the same compound?
A: 89.2 ± 0.33%

Q: And the viability at 0.037 µM ([7]; Homo sapiens, Rec1, dose 0.037 μM, read-out: Cell Viability, MCL-Rec1)?
A: 89.07 ± 0.33%

Q: And the viability at 0.11 µM ([7]; Homo sapiens, Rec1, dose 0.11 μM, read-out: Cell Viability, MCL-Rec1)?
A: 90.07 ± 0.1%

Q: And the viability at 0.33 µM ([7]; Homo sapiens, Rec1, dose 0.33 μM, read-out: Cell Viability, MCL-Rec1)?
A: 81.93 ± 0.03%

Q: And the viability at 1 µM ([7]; Homo sapiens, Rec1, dose 1 μM, read-out: Cell Viability, MCL-Rec1)?
A: 51 ± 1.83%

Q: And the viability at 3 µM ([7]; Homo sapiens, Rec1, dose 3 μM, read-out: Cell Viability, MCL-Rec1)?
A: 12 ± 0.95%

Q: What about the “Cell Concentration, MCL-Rec1” value ([7]; dose 0.004 μM) of the same compound?
A: 0.83 ± 0.01 ×10^6

Q: What about the “Cell Concentration, MCL-Rec1” value ([7]; dose 0.037 μM) of the same compound?
A: 0.87 ± 0.01 ×10^6

Q: And the “Cell Concentration, MCL-Rec1” value ([7]; dose 0.11 μM)?
A: 0.84 ± 0.01 ×10^6

Q: And the “Cell Concentration, MCL-Rec1” value ([7]; dose 0.33 μM)?
A: 0.58 ± 0.00 ×10^6

Q: What about the “Cell Concentration, MCL-Rec1” value ([7]; dose 1 μM) of the same compound?
A: 0.21 ± 0.01 ×10^6

Q: What about the “Cell Concentration, MCL-Rec1” value ([7]; dose 3 μM) of the same compound?
A: 0.04 ± 0.00 ×10^6

Q: What about the “Cell Concentration, MM cell line” value ([8]; dose 0.004 μM) of the same compound?
A: 1.22 ± 0.05 ×10^6

Q: What about the viability at 0.004 µM ([8]; dose 0.004 μM) of the same compound?
A: 89.63 ± 0.35%

Q: What about the “Cell Concentration, MM cell line” value ([8]; dose 0.037 μM) of the same compound?
A: 1.09 ± 0.05 ×10^6

Q: What about the viability at 0.037 µM ([8]; dose 0.037 μM) of the same compound?
A: 89.53 ± 0.46%

Q: What about the “Cell Concentration, MM cell line” value ([8]; dose 0.11 μM) of the same compound?
A: 0.85 ± 0.05 ×10^6

Q: What about the viability at 0.11 µM ([8]; dose 0.11 μM) of the same compound?
A: 84.7 ± 0.88%

Q: What about the “Cell Concentration, MM cell line” value ([8]; dose 0.33 μM) of the same compound?
A: 0.38 ± 0.01 ×10^6

Q: And the viability at 0.33 µM ([8]; dose 0.33 μM)?
A: 69.6 ± 0.85%

Q: And the “Cell Concentration, MM cell line” value ([8]; dose 1 μM)?
A: 0.21 ± 0.01 ×10^6

Q: What about the viability at 1 µM ([8]; dose 1 μM) of the same compound?
A: 55.5 ± 2.4%

Q: And the “Cell Concentration, MM cell line” value ([8]; dose 3 μM)?
A: 0.22 ± 0.01 ×10^6

Q: And the viability at 3 µM ([8]; dose 3 μM)?
A: 55.5 ± 1.79%

Q: And the cytotoxicity at 0.08 µM [9]?
A: 70 to 90%
